Results taken from patent publication US20240390377A1, “COMPOSITION FOR THE PREVENTION OR TREATMENT OF NEURODEGENERATIVE OR MOTOR NEURON DISEASES COMPRISING HALOFUGINONE AS AN ACTIVE INGREDIENT” (CURAMYS CO., LTD., priority 2022, published 2024).

Columns and labels:
C2C12 cells = assay: Real-time qRT-PCR analysis of C2C12 myoblasts (TGF-β1 stimulation, halofuginone treatment); assay type: cell-based, mouse; settings: low (5 ng/ml) or high (10 ng/ml) concentration halofuginone, 24 h (FIG. 4a)
Protocol: Specifically, C2C12 cells (CRL-1772) were purchased from the American Type Culture Collection (ATCC) and maintained in DMEM medium (Welgene) containing 10% (v/v) fetal bovine serum (FBS; Gibco) and 1% penicillin-streptomycin (P/S; Gibco) at 37° C. under 5% CO2 conditions. The C2C12 cells were seeded in 6-well plates at a density of 3×10^5 cells per well and allowed to adhere for 24 hours. Subsequently, the medium was replaced with serum-free medium after 24 hours, followed by stimulation with 5 ng/ml rhTGF-β1 (recombinant human TGF-β1; R&D Systems). After stimulation, the cells were treated with various concentrations (0 [control], or 1, 2.5, 5 [low dose], 10 [high dose], 20, 50, 100 ng/ml) of halofuginone (Sigma) in serum-free medium for 24 hours.
(§1) Specifically, total RNA was isolated from C2C12 cells in Example 1, fibroblasts in Example 5, and the lumbar spinal cord of mice in Example 6 using the FavorPrep™ Tri-RNA Reagent (Favorgen). The lumbar spinal cord was isolated from the mouse in Example 6 and stored frozen at −80° C. until the experiment. The concentration of total RNA was measured at 260 nm absorbance using a spectrophotometer (NanoDrop Spectrophotometer ND-2000, Thermo Scientific). cDNA was synthesized from 1 μg of total RNA using the ReverTra Ace-α™ (Toyobo) according to the manufacturers protocol. Quantitative RT-PCR was performed using the SYBR Green ExcelTaq™ 2× Fast Q-PCR Master Mix (TQ1200, Smobio) on a thermocycler (CFX Connect Real-Time PCR Detection System, BIO-RAD) with the primers listed in Table 3 below. Fluorescence data were analyzed with Bio-Rad CFX Manager 3.1 software, and control versus relative mRNA expression was calculated by the 2AT) method. Experiments were performed four times on all samples. All primers were designed using Primer3 online software, and GAPDH was used as a control group.
Specifically, after treating C2C12 cells with TGF-β1 for 24 hours as in Example 1, real-time qRT-PCR was performed in the same manner as in Example 11 to confirm TGF-β1, 2 and 3, α-SMA and MyoD mRNA expression (FIG. 2a), and Western blot analysis was performed in the same manner as in Example 12 to confirm autocrine expression of TGF-β1 and MyoD protein and α-SMA (FIG. 2b).
Specifically, as in Example 1, C2C12 cells were stimulated with TGF-β1 for 24 hours, and then halofuginone was treated for 24 hours, and real-time qRT-PCR was performed in the same manner as in Example 11 to confirm TGF-β1, α-SMA, MyoD, and collagen I (Col-I) mRNA expression (FIG. 4a). In addition, Western blot analysis was performed in the same manner as in Example 12 to confirm TGF-β1, α-SMA, MyoD, and collagen I protein expression (FIG. 4b). In addition, immunocytochemical analysis was performed in the same manner as in Example 3 to confirm α-SMA and MyoD expression (FIG. 4c).

[1] = tested on: G93A mutant SOD1 transgenic mice; assay: Real-time qRT-PCR analysis of lumbar spinal cord in ALS animal model; assay type: in vivo, mouse
Protocol: As a control group, non-transgenic mice were injected intraperitoneally (i.p.) with vehicle (DMSO) in the same manner for the same period of time.
as §1
In addition, to investigate the motor neuron source of the spinal cord, motor neurons of the lumbar spinal cord were observed and counted in the same manner as described in Example 9 (FIG. 9d), and real-time qRT-PCR and Western blot analysis were performed in the same manner as described in Example 11 and Example 12 to quantitatively analyze the expression of ChAT mRNA (FIG. 9e) and ChAT protein (FIG. 9f).
Specifically, Halofuginone was administered to G93A mutant SOD1 mice in the same manner as described in <Example 6>, and lumbar spinal cord was isolated after 120 days of age of mice were sacrificed. Then, mRNA expression of inflammation-related factors and neuronal cell death-related factors of CNS was confirmed by performing real-time qRT-PCT analysis in the same manner as in Example 11 (FIG. 11a), and protein expression of neuronal cell death-related factors was confirmed by performing Western blot analysis in the same manner as in Example 12 (FIG. 11b). Since the role (inflammatory or anti-inflammatory effect) differs according to the M1 or M2 subtype of microglia, the expression of M1 marker (iNOS, CD86), M2 marker (arginase 1) and pro-inflammatory factors (IFN-a, TNF-a, IL-1b, and IL-6) were confirmed as factors related to inflammation of CNS. In addition, the expression of caspase-3, bax, and bcl-2 was confirmed as factors related to neuronal apoptosis.

[2] = tested on: G93A mutant SOD1 transgenic mice; assay: Range of motion (ROM) of the knee joint in ALS animal model; assay type: in vivo, mouse; settings: 120 days old; compared to DMSO Non-TG group (DMSO TG significantly reduced)
Protocol: As a control group, non-transgenic mice were injected intraperitoneally (i.p.) with vehicle (DMSO) in the same manner for the same period of time. Specifically, anatomical indicators were used to determine the knee extension angle. Manual knee joint ROM was measured at the end of disease age (120 days) using Random Two-line, a 2D angle analysis system. The mice of Example 6 were anesthetized with 1% isoflurane inhalation, followed by placing them on an acrylic plate and shaving the skin on their hind legs. The femur was fixed to the plate and a constant force extension moment was applied to the knee joint per mouse. Subsequently, markers were attached to greater trochanter, epicondyle of the knee, and lateral malleolus to obtain markers on the imaging. The angle between the axis of the femur (the greater trochanter to the lateral joint space of the knee) and the fibula (the lateral joint space of the knee to the lateral malleolus) was measured as the knee extension ROM. Sixteen mice in each group were analyzed, and the knees of non-transgenic mice injected with DMSO in the group on day 120 were used as controls. Specifically, halofuginone was administered to G93A mutant SOD1 mice in the same manner as described in Example 6, and ROM measurement of the knee joint was performed in the same manner as described in Example 10 (FIG. 8a). […]

O=C(C[C@H]1NCCC[C@@H]1O)Cn1cnc2cc(Br)c(Cl)cc2c1=O (racemic) [halofuginone]
decrease in MyoD mRNA level by TGF-β1 stimulation (C2C12 cells): significantly recovered | increase in TGF-β1 mRNA level by TGF-β1 stimulation (C2C12 cells): significantly reduced | increase in collagen I mRNA level by TGF-β1 stimulation (C2C12 cells): significantly reduced | increase in α-SMA mRNA level by TGF-β1 stimulation (C2C12 cells): significantly reduced | mRNA level of ChAT in lumbar spinal cord ([1]; 120-day-old mice, compared to DMSO Non-TG group (FIG. 9e)): preserved similarly | increase in mRNA levels of M1 markers (iNOS, CD86) in lumbar spinal cord ([1]; 120 days of age (FIG. 11a)): inhibited | increase in mRNA levels of proinflammatory factors (IFN-a, TNF-a, IL-1b, IL-6) in lumbar spinal cord ([1]; 120 days of age (FIG. 11a)): inhibited | mRNA level of bcl-2 in lumbar spinal cord ([1]; 120 days of age, decreased in DMSO TG group (FIG. 11a)): preserved | range of motion (ROM) of the knee joint [2]: not changed
